The structures appear in SMILES notation.

The test system of one assay is ZIKV replicon. Briefly: ZIKV replication inhibition assay (NanoLuc replicon in Vero cells). The conditions noted are these: Zika virus, Vero, 72 h, read-out: ZIKA Cell_Nanoluc. A general note: Replicon systems follow genome replication, usually without infectious particles.
Take `NCC12CC(C[n+]3cc([N-]C(=O)Nc4cc(NC(=O)Cc5ccccc5)cc(C(F)(F)F)c4)on3)(C1)C2` [Example 103]: the EC50 is greater than 20000 nM.

The same assay, now with this note: Zika virus, Vero, 72 h, read-out: ZIKA Cell_Nanoluc, Vero cells with stable ZIKV replicon, 72 h, Nano-Glo readout.
In the case of `C=CCOC(=O)C[n+]1cc([N-]C(=O)Nc2cc(NC(=O)Cc3ccccc3)cc(C(F)(F)F)c2)on1` [Example 97, (3-(2-(Allyloxy)-2-oxoethyl)-1,2,3-oxadiazol-3-ium-5-yl)((3-(2-phenylacetamido)-5-(trifluoromethyl)phenyl)carbamoyl)amide], the EC50 was greater than 20000 nM.

Turning to `COC(=O)c1ccc(C[n+]2cc([N-]C(=O)Nc3cc(NC(=O)Cc4ccccc4)cc(C(F)(F)F)c3)on2)cc1` [Example 98, (3-(4-(Methoxycarbonyl)benzyl)-1,2,3-oxadiazol-3-ium-5-yl)((3-(2-phenyl-acetamido)-5-(trifluoromethyl)phenyl)carbamoyl)amide], the EC50 is 1000 to 20000 nM.

`O=C(Cc1ccccc1)Nc1cc(NC(=O)[N-]c2c[n+](C3CCNCC3)no2)cc(C(F)(F)F)c1` [Example 99, ((3-(2-Phenylacetamido)-5-(trifluoromethyl)-phenyl)carbamoyl)(3-(piperidin-4-yl)-1,2,3-oxadiazol-3-ium-5-yl)amide]: the EC50 is 1000 to 20000 nM.

With `CN1CCC([n+]2cc([N-]C(=O)Nc3cc(NC(=O)Cc4ccccc4)cc(C(F)(F)F)c3)on2)CC1` [Example 100, (3-(1-Methylpiperidin-4-yl)-1,2,3-oxadiazol-3-ium-5-yl)((3-(2-phenylacetamido)-5-(trifluoromethyl)phenyl)carbamoyl)amide], the EC50 lay in the range of 1000 to 20000 nM.

As to `O=C(Cc1ccccc1)Nc1cc(NC(=O)[N-]c2c[n+](Cc3ccc(C(=O)O)cc3)no2)cc(C(F)(F)F)c1` [Example 101, (3-(4-Carboxybenzyl)-1,2,3-oxadiazol-3-ium-5-yl)((3-(2-phenylacetamido)-5-(trifluoromethyl)phenyl)carbamoyl)amide], the EC50 was greater than 20000 nM.

Turning to `O=C(Cc1ccccc1)Nc1cc(NC(=O)[N-]c2c[n+](Cc3ccc(CO)cc3)no2)cc(C(F)(F)F)c1` [Example 102, (3-(4-(Hydroxymethyl)benzyl)-1,2,3-oxadiazol-3-ium-5-yl)((3-(2-phenylacetamido)-5-(trifluoromethyl)phenyl)carbamoyl)amide], the EC50 was 1000 to 20000 nM.

Turning to `NC(=O)c1ccc(C[n+]2cc([N-]C(=O)Nc3cc(NC(=O)Cc4ccccc4)cc(C(F)(F)F)c3)on2)cc1` [Example 104, (3-(4-Carbamoylbenzyl)-1,2,3-oxadiazol-3-ium-5-yl)((3-(2-phenylacetamido)-5-(trifluoromethyl)phenyl)carbamoyl)amide], the EC50 was in the range of 1000 to 20000 nM.

As to `CN1CCCCC1C[n+]1cc([N-]C(=O)Nc2cc(NC(=O)Cc3ccccc3)cc(C(F)(F)F)c2)on1` (stereo not drawn) [Example 105, (3-((1-Methylpiperidin-2-yl)methyl)-1,2,3-oxadiazol-3-ium-5-yl)((3-(2-phenylacetamido)-5-(trifluoromethyl)phenyl)carbamoyl)amide], the EC50 fell in the range of 100 to 1000 nM.

With `CN1CCC(C[n+]2cc([N-]C(=O)Nc3cc(NC(=O)Cc4ccccc4)cc(C(F)(F)F)c3)on2)CC1` [Example 106, (3-((1-Methylpiperidin-4-yl)methyl)-1,2,3-oxadiazol-3-ium-5-yl)((3-(2-phenylacetamido)-5-(trifluoromethyl)phenyl)carbamoyl)amide], the EC50 lay within 1000 to 20000 nM.

Take `O=C(Cc1ccccc1)Nc1cc(NC(=O)[N-]c2c[n+](Cc3cccc(CN4C(=O)c5ccccc5C4=O)c3)no2)cc(C(F)(F)F)c1` [Example 107, (3-(3-((1,3-Dioxoisoindolin-2-yl)methyl)benzyl)-1,2,3-oxadiazol-3-ium-5-yl)((3-(2-phenylacetamido)-5-(trifluoromethyl)phenyl)carbamoyl)amide]: the EC50 lay in the range of 1000 to 20000 nM.

With `NCc1cccc(C[n+]2cc([N-]C(=O)Nc3cc(NC(=O)Cc4ccccc4)cc(C(F)(F)F)c3)on2)c1` [Example 108, (3-(3-(Aminomethyl)benzyl)-1,2,3-oxadiazol-3-ium-5-yl)((3-(2-phenylacetamido)-5-(trifluoromethyl)phenyl)carbamoyl)amide], the EC50 lay in the range of 1000 to 20000 nM.

As for `COC(=O)Cc1ccc(C[n+]2cc([N-]C(=O)Nc3cc(NC(=O)Cc4ccccc4)cc(C(F)(F)F)c3)on2)cc1` [Example 109, (3-(4-(2-Methoxy-2-oxoethyl)benzyl)-1,2,3-oxadiazol-3-ium-5-yl)((3-(2-phenylacetamido)-5-(trifluoromethyl)phenyl)carbamoyl)amide], the EC50 is 100 to 1000 nM.

In the case of `O=C(Cc1ccccc1)Nc1cc(NC(=O)[N-]c2c[n+](CC3CCCNC3)no2)cc(C(F)(F)F)c1` (stereo not drawn) [Example 110, ((3-(2-Phenylacetamido)-5-(trifluoromethyl)phenyl)carbamoyl)(3-(piperidin-3-ylmethyl)-1,2,3-oxadiazol-3-ium-5-yl)amide], the EC50 is greater than 20000 nM.

On to `O=C(Cc1ccccc1)Nc1cc(NC(=O)[N-]c2c[n+](Cc3ccc(CCO)cc3)no2)cc(C(F)(F)F)c1` [Example 111, (3-(4-(2-Hydroxyethyl)benzyl)-1,2,3-oxadiazol-3-ium-5-yl)((3-(2-phenylacetamido)-5-(trifluoromethyl)phenyl)carbamoyl)amide], for which the EC50 lay within 100 to 1000 nM.

Take `NC1C2COCC1CC([n+]1cc([N-]C(=O)Nc3cc(NC(=O)Cc4ccccc4)cc(C(F)(F)F)c3)on1)C2` (stereo not drawn) [Example 112, (3-(9-Amino-3-oxabicyclo[3.3.1]nonan-7-yl)-1,2,3-oxadiazol-3-ium-5-yl)((3-(2-phenylacetamido)-5-(trifluoromethyl)phenyl)carbamoyl)amide]: the EC50 was greater than 20000 nM.

As to `COC(=O)c1ccc(C[n+]2cc([N-]C(=O)Nc3cc(NC(=O)Cc4ccccc4)cc(C(F)(F)F)c3)on2)nc1` [Example 113, (3-((5-(Methoxycarbonyl)pyridin-2-yl)methyl)-1,2,3-oxadiazol-3-ium-5-yl)((3-(2-phenylacetamido)-5-(trifluoromethyl)phenyl)carbamoyl)amide], the EC50 was 1000 to 20000 nM.

As for `NCc1ccccc1C[n+]1cc([N-]C(=O)Nc2cc(NC(=O)Cc3ccccc3)cc(C(F)(F)F)c2)on1` [Example 114, (3-(2-(Aminomethyl)benzyl)-1,2,3-oxadiazol-3-ium-5-yl)((3-(2-phenylacetamido)-5-(trifluoromethyl)phenyl)carbamoyl)amide], the EC50 is 1000 to 20000 nM.

As for `O=C(Cc1ccccc1)Nc1cc(NC(=O)[N-]c2c[n+](CC3CNCCCO3)no2)cc(C(F)(F)F)c1` (stereo not drawn) [Example 115, (3-((1,4-oxazepan-2-yl)methyl)-1,2,3-oxadiazol-3-ium-5-yl)((3-(2-phenylacetamido)-5-(trifluoromethyl)phenyl)carbamoyl)amide], the EC50 was 1000 to 20000 nM.

For the molecule `O=C(Cc1ccccc1)Nc1cc(NC(=O)[N-]c2c[n+](Cc3ccc(CO)cn3)no2)cc(C(F)(F)F)c1` [Example 116, (3-((5-(Hydroxymethyl)pyridin-2-yl)methyl)-1,2,3-oxadiazol-3-ium-5-yl)((3-(2-phenylacetamido)-5-(trifluoromethyl)phenyl)carbamoyl)amide], the EC50 lay in the range of 1000 to 20000 nM.

Turning to `CN1CCCC(C[n+]2cc([N-]C(=O)Nc3cc(NC(=O)Cc4ccccc4)cc(C(F)(F)F)c3)on2)C1` (stereo not drawn) [Example 117, (3-((1-Methylpiperidin-3-yl)methyl)-1,2,3-oxadiazol-3-ium-5-yl)((3-(2-phenylacetamido)-5-(trifluoromethyl)phenyl)carbamoyl)amide], the EC50 was 1000 to 20000 nM.
